Values of other authors, collected in patent US20200209238A1, “OPTIMIZING DIAGNOSTICS FOR GALACTOFURANOSE CONTAINING ANTIGENS” (The Johns Hopkins University, priority 2017, published 2020).

Molecular target: T1, hINTL-1 (Homo sapiens, UniProt Q8WWA0)
T1 construct: from tissue; host or cells: human urine
T1 sequence (Q8WWA0 19-298): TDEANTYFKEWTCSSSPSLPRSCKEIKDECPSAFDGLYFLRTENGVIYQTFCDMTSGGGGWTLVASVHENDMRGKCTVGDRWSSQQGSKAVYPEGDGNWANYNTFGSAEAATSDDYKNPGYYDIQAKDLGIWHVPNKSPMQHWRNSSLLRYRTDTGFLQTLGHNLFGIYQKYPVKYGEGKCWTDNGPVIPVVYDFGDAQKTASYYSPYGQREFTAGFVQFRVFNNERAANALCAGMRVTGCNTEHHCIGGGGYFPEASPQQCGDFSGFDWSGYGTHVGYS

For `CC(=O)N[C@H]1[C@H]([C@H](O)[C@H](O)CO)OC(O)(C(=O)O)C[C@@H]1O` (stereo partly shown) [N-Acetylneuraminic acid (Neu5Ac), N-Acetylneuraminic acid], the “binding to hIntL-1” value is given as “does not bind”.
